{
  "source": "patent US12390423B2",
  "about": "(priority 2019, dated 2025)",
  "key": {"INS-1 (832/13) cells [1]": {"system": "INS-1 (832/13) cells", "experiment": "High resolution respirometry in INS-1 (832/13) cells", "format": "cell-based, rat", "procedure": "Cells treated with test compounds for 24 h were trypsinized, counted, and resuspended in phosphate buffer saline (PBS). High-resolution O2 consumption measurements were conducted in 2 ml of respiration medium (PBS, pH 7.5, stir speed 750 rpm) using the Oroboros Oxygraph-2k (Oroboros Instruments, Corp., Innsbruck, Austria) set to 37° C. with a gain of 2 in both chambers. Briefly, after the injection of 5 million treated INS-1 (832/13) cells or C2C12 myotubes per chamber, basal respiration was measured once steady-state respiratory flux was obtained; this represents coupled respiration fueled by available substrates from the incubation with test compounds. Uncoupled respiration was then measured following addition of the ATP synthase inhibitor oligomycin (0.25 μM). This was followed by measuring maximal respiratory rate by stepwise titration of carbonyl cyanide p-trifluoromethoxy phenyl hydrazone (FCCP; within 0.1-0.25 μM) in the presence of 1 mmol/L pyruvate. Finally, respiration was inhibited by addition of rotenone (0.5 μM; complex I inhibitor) to obtain extra-mitochondrial residual oxygen consumption. Data was recorded with DatLab software (Oroboros Instruments, Innsbruck, Austria), oxygen consumption at each step of the protocol was normalized to vehicle control and illustrated in histograms. For all HRR protocols, cell viability was determined after trypsinization and also after end of HRR runs via trypan blue cell staining and counting using a hemocytometer. No significant differences in cell viability between control and treated cells were observed.\nAdditionally, to indirectly assess metabolic flexibility, cells were treated the same way as described, collected and subjected to a 15 min treatment of 10 mM D-glucose before being washed and injected into the respirometer; these experiments were done to assess if cells incubated in low glucose/high fat conditions for 24 h can easily switch to glucose utilization upon acute incubation with D-glucose."}, "[2]": {"experiment": "Intraperitoneal glucose and insulin tolerance tests (GTT, ITT) and HOMA-IR in DIO mice", "format": "in vivo, C57BL/6J mice", "details": "HFD mice, AvoB 100 mg/kg b.w. twice weekly", "procedure": "Intraperitoneal glucose and insulin tolerance tests (GTT and ITT) were performed 8 hours after food withdrawal. For GTT, a glucose dose of 1.5 g/kg was used for mice on both HFD and standard diet. For ITT, an insulin (Humulin, Eli Lilly, USA) dose of 1 U/kg and 0.25 U/kg was used for mice on HFD and standard diet, respectively. Blood glucose levels were determined at 0, 10, 20, 30, 60, and 90 minutes after glucose/insulin administration via tail bleed using the OneTouch Blood Ultra 2 glucose meters (LifeScan Europe, Switzerland).\nThe homeostasis model assessment was used to calculate the insulin resistance (HOMA-IR) index^60 using the values of fasting plasma glucose (FPG) and fasting plasma insulin (FPI) as follows: […]; HOMA-IR=FPGxFPI/22.5, with FPG expressed as mmol/L and FPI as mIU/L."}, "INS-1 (832/13) cells [3]": {"system": "INS-1 (832/13) cells", "experiment": "Mitochondrial ROS (MitoSOX) and membrane potential (JC-1) in INS-1 (832/13) cells", "format": "cell-based, rat", "details": "25 μM AvoB, 0.5 mM palmitate, 24 h", "procedure": "For all ROS studies, INS-1 (832/13) cells and C2C12 myotubes were treated with or without palmitate and FAO inhibitors for 24 h in low glucose cell culture media as described for the FAO assay. After treatment, cells were trypsinized and re-suspended in PBS containing 5 μM of the fluorescent dye MitoSOX® (Molecular Probes, Invitrogen) and allowed to incubate for 5-15 minutes in a humidified atmosphere containing 5% CO2 at 37° C. Cells were then washed in PBS, placed in a 96 well plate and fluorescence was measured by flow cytometry. ROS was quantified by normalizing the mean fluorescence values of live gated cells to vehicle control. Mitochondrial membrane potential (MMP) in INS-1 (832/13) and C2C12 myotubes was measured using the cationic fluorescent dye JC-1 (Molecular Probes). […] JC-1 fluoresces green in the cytosol where it exists as a monomer, after entering the mitochondria JC-1 monomers form J aggregates and fluoresce red, thus the red/green fluorescence ratio is used to determine MMP. […] Cells were then washed in PBS, placed in a 96 well plate and fluorescence was measured by flow cytometry. MMP was quantified by normalizing the mean fluorescence values of live gated cells to vehicle control. […] Cells were treated, washed and collected as described and incubated with 0.35 μM NAO and green fluorescence was measured using flow cytometry. […]"}, "INS-1 (832/13) cells [4]": {"system": "INS-1 (832/13) cells", "experiment": "Cellular ATP content in INS-1 (832/13) cells", "format": "cell-based, rat", "details": "25 μM AvoB, palmitate challenged, 24 h", "procedure": "Total cellular ATP content was determined using the ATP bioluminescent assay kit (Calbiochem, 119107). Briefly, cells were seeded in white walled 96-well plates (1.2×10^4 cells/well for INS-1 and 2×10^4 cells/well for C2C12) and treated for 24 h (C2C12 cells were differentiated for 5 days prior to treatments whereas INS-1 cells were treated 24 h after seeding). After treatment, culture media was removed, and cells were lysed with nucleotide releasing buffer with gentle shaking for 5 min. ATP monitoring enzyme was then added to cell lysates and plates and luminescence was read in a Biotek Synergy HT spectrophotometer (Biotek; Winooski, VT)."}, "INS-1 (832/13) cells [5]": {"system": "INS-1 (832/13) cells", "experiment": "Glucose stimulated insulin secretion (GSIS) in INS-1 (832/13) cells", "format": "cell-based, rat", "details": "0.5 mM palmitate 24 h, AvoB 25 μM, ETO 100 μM", "procedure": "To measure glucose stimulated insulin secretion (GSIS) in INS-1(832/13) cells a standard protocol was adopted. […] After treatments were complete, cell media was replaced with KRB (Krebs-Ringer Bicarbonate) buffer. Cells were then challenged with 3 mM glucose for 2 h in KRB buffer after which 500 μL KRB buffer was collected and frozen in −80° C. until analysis. For another 2 h, cells were challenged with 16 mM glucose after which 500 μL KRB was collected and frozen in −80° C. until analysis. The amount of insulin released into the KRB buffer was determined by an ELISA kit (Millipore, Rat/Mouse Insulin Detection kit). Data was normalized for cellular protein content, as determined by the Micro-BCA Protein Assay kit. The glucose-dependent insulin secretory index (GSIS16/3), defined as the ratio between the insulin secretion at 16 mM (stimulatory, surrogate to postprandial glucose levels) and 3 mM (basal, surrogate to fasting glucose levels) glucose was also calculated."}},
  "note": "Entries after “also recorded” stand apart in the source; their conditions may differ.",
  "data": [
    {"substance": "avocatin B [AvoB]", "values": [
      {"measurement": "Respiration after 10 mM glucose challenge (HRR, metabolic flexibility)", "setting": "INS-1 (832/13) cells [1]; 25 μM AvoB, 0.25 mM palmitate 24 h, then 10 mM glucose 15 min, vs palmitate-only", "value": "increased basal and maximal respiration compared to the palmitate-only control"},
      {"measurement": "Palmitate supported respiration (OCR, HRR)", "setting": "INS-1 (832/13) cells [1]; 25 μM AvoB, 0.25 mM palmitate-BSA/1 mM L-carnitine, 24 h", "value": "inhibited palmitate supported basal and maximal-uncoupled respiration"},
      {"measurement": "Concentration imparting FAO inhibition relative to etomoxir", "setting": "INS-1 (832/13) cells [1]; AvoB 25 μM vs etomoxir 100 μM", "value": "four-fold lower than etomoxir"},
      {"measurement": "HOMA-IR index", "setting": "[2]", "value": "comparable to lean, STD mice"},
      {"measurement": "Glucose tolerance (GTT, AUC)", "setting": "[2]; vs HFD-control, i.p. glucose 1.5 g/kg", "value": "significantly improved glucose tolerance"},
      {"measurement": "Whole body insulin sensitivity (ITT, AUC)", "setting": "[2]; vs HFD-control, i.p. insulin", "value": "greater insulin sensitivity"},
      {"measurement": "Mitochondrial membrane potential (MMP, JC-1)", "setting": "INS-1 (832/13) cells [3]", "value": "lowers palmitate-induced increases"},
      {"measurement": "Mitochondrial superoxide levels (MitoSOX Red)", "setting": "INS-1 (832/13) cells [3]", "value": "lowers palmitate-induced increases in mitochondrial superoxide levels"},
      {"measurement": "Total cellular ATP content", "setting": "INS-1 (832/13) cells [4]", "value": "restores total cellular ATP content"},
      {"measurement": "Glucose stimulated insulin secretion (GSIS)", "setting": "INS-1 (832/13) cells [5]", "value": "rescued; also recorded: GSIS was higher"}
    ]}
  ]
}
